Results from PubChem BioAssay (NCI).
Where “and” joins values, the source holds several entries; their conditions need not be identical. Identical values can stand only once.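 How tested: cells in 96-well plates exposed to compound for 48 hours at five concentrations. Abbreviation: GI50, concentration required for 50% inhibition of growth. TGI: concentration producing complete growth inhibition.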

What was measured:
Test in all cases: NCI-60 cell line screen, 48 h
EKVX NSCLC = tested on: EKVX NSCLC
SK-OV-3 ovarian = tested on: SK-OV-3 ovarian
HT29 colon = tested on: HT29 colon
LOX IMVI melanoma = tested on: LOX IMVI melanoma
HS 578T breast = tested on: HS 578T breast
NCI-H460 lung = tested on: NCI-H460 lung
NCI-H23 lung = tested on: NCI-H23 lung
DU-145 prostate = tested on: DU-145 prostate
SK-MEL-5 melanoma = tested on: SK-MEL-5 melanoma
RPMI-8226 leukemia = tested on: RPMI-8226 leukemia

| SMILES | GI50 (EKVX NSCLC) [µM] | TGI (EKVX NSCLC) | GI50 (SK-OV-3 ovarian) | TGI (SK-OV-3 ovarian) | GI50 (HT29 colon) | TGI (HT29 colon) | GI50 (LOX IMVI melanoma) | TGI (LOX IMVI melanoma) | GI50 (HS 578T breast) | TGI (HS 578T breast) | GI50 (NCI-H460 lung) | TGI (NCI-H460 lung) | GI50 (NCI-H23 lung) | TGI (NCI-H23 lung) | GI50 (DU-145 prostate) [µM] | TGI (DU-145 prostate) | GI50 (SK-MEL-5 melanoma) | TGI (SK-MEL-5 melanoma) | GI50 (RPMI-8226 leukemia) | TGI (RPMI-8226 leukemia) [µM] |
| --- | --- | --- | --- | --- | --- | --- | --- | --- | --- | --- | --- | --- | --- | --- | --- | --- | --- | --- | --- | --- |
| CN1CCN(c2ccc3nc(-c4[nH]ncc4Nc4ncnc5c4OCCCN5)[nH]c3c2)CC1 | 0.0168 | 0.183 µM | < 0.0108 µM | 0.202 µM | < 0.0126 µM | 0.1 µM | < 0.01 µM | 0.0202 µM | < 0.01 µM | 0.0302 µM | 0.0208 µM | 0.0804 µM | < 0.0109 µM | 0.0726 µM | < 0.0118 | 0.482 µM | 0.0204 µM | 0.0976 µM | 0.0418 µM | 0.155 |
| O=C(Nc1ccc(Oc2ccc(NC(=O)Nc3ccc([N+](=O)[O-])cc3)cc2)cc1)Nc1ccc([N+](=O)[O-])cc1 | 2.32 | > 30.9 µM | 2.27 µM | 7.51 µM | 2 µM | 15.9 µM | 1.78 µM | 10.7 µM | 2.34 µM | 7.98 µM | 1.74 µM | 6.61 µM | 1.23 µM | 30.8 µM | 2.44 | > 100 µM | 1.66 µM | 3.32 µM | 0.303 µM | 1.84 |
| COc1cc(-c2nc(-c3ccc(-c4nc5ccc(F)cc5[nH]4)cc3)no2)cc(OC)c1OC | 3.45 | 27.4 µM | 4.12 µM | 31.4 µM | 3.69 µM | 17.7 µM | 1.65 µM | 3.73 µM | 2.27 µM | 7.36 µM | 2.97 µM | 12.5 µM | 2.5 µM | 8.35 µM | 3.96 | 15.3 µM | 2.22 µM | 10.2 µM | 1.94 µM | 5.35 |
| c1ccc2cc(C[n+]3ccn(Cc4ccc5ccccc5n4)c3)ccc2c1 | – | 7.34 µM and 31.4 µM | 0.671 µM and 3.64 µM | 4.3 µM and 17.7 µM | 0.366 µM and 2.55 µM | 3.01 µM and 14.3 µM | 0.435 µM and 2.9 µM | 1.68 µM and 11.4 µM | 1.25 µM and 4.49 µM | 12.2 µM and 20.3 µM | 0.456 µM and 3.74 µM | 10.8 µM and 14.6 µM | 0.311 µM and 2.7 µM | 3.23 µM and 14.6 µM | – | 12.4 µM and 22.4 µM | 0.216 µM and 1.21 µM | 0.532 µM and 2.5 µM | 0.196 µM and 0.876 µM | – |
| O=C(Nc1ccc(Nc2ccncc2)cc1)c1ccc(Nc2ccnc3ccc([N+](=O)[O-])cc23)cc1[N+](=O)[O-] | 22.5 | > 100 µM | 19.3 µM | 40 µM | 45.4 µM | > 100 µM | 4.82 µM | > 51 µM | 0.691 µM | – | 9.96 µM | > 100 µM | 20.6 µM | > 100 µM | 5.55 | 25.5 µM | 25.8 µM | > 100 µM | 12.6 µM | 55.3 |
| Oc1ccc(Oc2cnc3cc(Cl)ccc3n2)cc1 | 13.2 | 74.4 µM | > 100 µM | > 100 µM | 51.7 µM | > 100 µM | 34.9 µM | > 100 µM | 35.5 µM | > 100 µM | 20.1 µM | 53.1 µM | 52.8 µM | > 100 µM | 42.4 | > 100 µM | 28.6 µM | > 100 µM | 16.7 µM | > 100 |
| COc1cnc2c(c1)C(=O)c1c-2n(CCCNCCN2CCOCC2)c(=O)c2cc([N+](=O)[O-])ccc12 | 0.446 | 3.5 µM | 0.142 µM | 1.62 µM | 0.154 µM | 1.31 µM | 0.0413 µM | 0.216 µM | 3.85 µM | 26.9 µM | 0.0411 µM | 1.03 µM | 0.152 µM | 1.61 µM | 0.0608 | 1.12 µM | 0.263 µM | 1.26 µM | 0.171 µM | 1.55 |
| O=C(Cc1ccc(Nc2ccnc(C(F)(F)F)c2)cc1)Nc1cc(Cl)ccc1O | 3.12 | 16.9 µM | 15.8 µM | 54.9 µM | 21.4 µM | 53.5 µM | 6.46 µM | 28.5 µM | 3.7 µM | 26 µM | 6.92 µM | 27.9 µM | 2.86 µM | 13.3 µM | 9.27 | 38.1 µM | 3.86 µM | 14.7 µM | 1.25 µM | 4.1 |
| O=C(Cc1csc2nc(-c3ccc(Br)cc3)cn12)N/N=C/c1ccc(Cl)cc1Cl | 31.6 | > 100 µM | > 100 µM | > 100 µM | 40.8 µM | > 100 µM | 21.2 µM | 48.6 µM | 31.8 µM | 89.1 µM | > 100 µM | > 100 µM | 25.6 µM | 56.4 µM | 26.3 | > 100 µM | 44.2 µM | > 100 µM | 80.2 µM | > 100 |
| OCCn1cc(-c2cnc3nnn(Cc4ccc5ncccc5c4)c3n2)cn1 | > 100 | > 100 µM | > 100 µM | > 100 µM | > 100 µM | > 100 µM | > 100 µM | > 100 µM | > 100 µM | > 100 µM | > 100 µM | > 100 µM | > 100 µM | > 100 µM | > 100 | > 100 µM | > 100 µM | > 100 µM | > 100 µM | > 100 |
| COc1ccc(/C=N\NC(=O)c2ccc3nc(-c4ccc(Cl)cc4)[nH]c3c2)cc1 | 2.11 | 5.84 µM | 2.3 µM | 12.8 µM | 3.09 µM | 22.1 µM | 2.19 µM | 4.01 µM | 2.3 µM | 5.64 µM | 1.83 µM | 3.59 µM | 2.74 µM | 11.2 µM | 1.98 | 4.61 µM | 1.89 µM | 3.88 µM | 0.997 µM | 4.77 |
| CN(C)c1ccc2cc3ccc(N(C)C)cc3nc2c1 | – | 7.21 µM | – | 13.9 µM | – | 1.81 µM | – | 3.63 µM | – | 10.7 µM | – | 1.99 µM | – | 6.17 µM | – | 4.29 µM | – | 8.34 µM | – | 4.09 |
